Laboratory results as given in publication PMC7156458, “Synthetic biology based construction of biological activity-related library of fungal decalin-containing diterpenoid pyrones” (Nature Communications, 2020).

Biological target: Aβ42 (Homo sapiens, UniProt P05067)
Experiment: Th-T (thioflavin-T) assay of Aβ42 aggregation
Format: biochemical
Settings: for Th-T assay plate reading, mean of three wells (Supplementary Fig. 47): source data, Ab alone and No Ab as controls

Sequence of Aβ42 (P05067 672-713): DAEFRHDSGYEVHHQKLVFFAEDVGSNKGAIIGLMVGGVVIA

For `C=C1CC[C@H]2[C@]3(C)C[C@H](C=C(C)C)O[C@H]3CC[C@]2(C)[C@@H]1Cc1c(O)c(C)c(C)oc1=O` [Compound 6, subglutinol B], the “Th-T fluorescence, mean of three wells” value (Aβ42 aggregation time course, reading M117) was 3.0425, the “Th-T fluorescence, mean of three wells” value (Aβ42 aggregation time course, reading M118) was 3.0715 and the “Th-T fluorescence, mean of three wells” value (Aβ42 aggregation time course, reading M119) was 3.036. The “Th-T fluorescence, mean of three wells” value (Aβ42 aggregation time course, reading M120) was 3.042, the “Th-T fluorescence, mean of three wells” value (Aβ42 aggregation time course, reading M121) was 3.063 and the “Th-T fluorescence, mean of three wells” value (Aβ42 aggregation time course, reading M122) was 3.055. For the same compound, the “Th-T fluorescence, mean of three wells” value (Aβ42 aggregation time course, reading M123) was 3.062, the “Th-T fluorescence, mean of three wells” value (Aβ42 aggregation time course, reading M124) was 3.061 and the “Th-T fluorescence, mean of three wells” value (Aβ42 aggregation time course, reading M125) was 3.081. For the same compound, the “Th-T fluorescence, mean of three wells” value (Aβ42 aggregation time course, reading M126) was 3.018, the “Th-T fluorescence, mean of three wells” value (Aβ42 aggregation time course, reading M127) was 3.038 and the “Th-T fluorescence, mean of three wells” value (Aβ42 aggregation time course, reading M128) was 3.027. For the same compound, the “Th-T fluorescence, mean of three wells” value (Aβ42 aggregation time course, reading M129) was 3.02, the “Th-T fluorescence, mean of three wells” value (Aβ42 aggregation time course, reading M130) was 3.02 and the “Th-T fluorescence, mean of three wells” value (Aβ42 aggregation time course, reading M131) was 3.032. The “Th-T fluorescence, mean of three wells” value (Aβ42 aggregation time course, reading M132) was 3.01, the “Th-T fluorescence, mean of three wells” value (Aβ42 aggregation time course, reading M133) was 3.061 and the “Th-T fluorescence, mean of three wells” value (Aβ42 aggregation time course, reading M134) was 3.045. For the same compound, the “Th-T fluorescence, mean of three wells” value (Aβ42 aggregation time course, reading M135) was 3.053, the “Th-T fluorescence, mean of three wells” value (Aβ42 aggregation time course, reading M136) was 3.034 and the “Th-T fluorescence, mean of three wells” value (Supplementary Fig. 47, reading M137) was 3.021. For the same compound, the “Th-T fluorescence, mean of three wells” value (Supplementary Fig. 47, reading M138) was 3.036, the “Th-T fluorescence, mean of three wells” value (Supplementary Fig. 47, reading M139) was 3.036 and the “Th-T fluorescence, mean of three wells” value (Supplementary Fig. 47, reading M140) was 3.0121. For the same compound, the “Th-T fluorescence, mean of three wells” value (Supplementary Fig. 47, reading M141) was 3.01, the “Th-T fluorescence, mean of three wells” value (Supplementary Fig. 47, reading M142) was 2.999 and the “Th-T fluorescence, mean of three wells” value (Supplementary Fig. 47, reading M143) was 3.017. For the same compound, the “Th-T fluorescence, mean of three wells” value (Supplementary Fig. 47, reading M144) was 3.0125, the “Th-T fluorescence, mean of three wells” value (Supplementary Fig. 47, reading M145) was 3.0288 and the “Th-T fluorescence, mean of three wells” value (Supplementary Fig. 47 source data, measurement M37 of time course) was 3.017. For the same compound, the “Th-T fluorescence, mean of three wells” value (Supplementary Fig. 47 source data, measurement M38 of time course) was 3.04, the “Th-T fluorescence, mean of three wells” value (Supplementary Fig. 47 source data, measurement M39 of time course) was 3.05 and the “Th-T fluorescence, mean of three wells” value (Supplementary Fig. 47 source data, measurement M40 of time course) was 3.045. The “Th-T fluorescence, mean of three wells” value (Supplementary Fig. 47 source data, measurement M41 of time course) was 3.085, the “Th-T fluorescence, mean of three wells” value (Supplementary Fig. 47 source data, measurement M42 of time course) was 3.072 and the “Th-T fluorescence, mean of three wells” value (Supplementary Fig. 47 source data, measurement M43 of time course) was 3.079. The “Th-T fluorescence, mean of three wells” value (Supplementary Fig. 47 source data, measurement M44 of time course) was 3.068, the “Th-T fluorescence, mean of three wells” value (Supplementary Fig. 47 source data, measurement M45 of time course) was 3.111 and the “Th-T fluorescence, mean of three wells” value (Supplementary Fig. 47 source data, measurement M46 of time course) was 3.079. For the same compound, the “Th-T fluorescence, mean of three wells” value (Supplementary Fig. 47 source data, measurement M47 of time course) was 3.097, the “Th-T fluorescence, mean of three wells” value (Supplementary Fig. 47 source data, measurement M48 of time course) was 3.117 and the “Th-T fluorescence, mean of three wells” value (Supplementary Fig. 47 source data, measurement M49 of time course) was 3.11. The “Th-T fluorescence, mean of three wells” value (Supplementary Fig. 47 source data, measurement M50 of time course) was 3.114, the “Th-T fluorescence, mean of three wells” value (Supplementary Fig. 47 source data, measurement M51 of time course) was 3.119 and the “Th-T fluorescence, mean of three wells” value (Supplementary Fig. 47 source data, measurement M52 of time course) was 3.113. The “Th-T fluorescence, mean of three wells” value (Supplementary Fig. 47 source data, measurement M53 of time course) was 3.12, the “Th-T fluorescence, mean of three wells” value (Supplementary Fig. 47 source data, measurement M54 of time course) was 3.1191 and the “Th-T fluorescence, mean of three wells” value (Supplementary Fig. 47 source data, measurement M55 of time course) was 3.1238. For the same compound, the “Th-T fluorescence, mean of three wells” value (Supplementary Fig. 47 source data, measurement M56 of time course) was 3.106, the “Th-T assay plate reading, mean of three wells (Supplementary Fig. 47)” value (shortened to “Th-T assay plate reading, mean”) (measurement M1) was 0.3106 and the “Th-T assay plate reading, mean” value (measurement M2) was 0.3077. For the same compound, the “Th-T assay plate reading, mean” value (measurement M3) was 0.3313, the “Th-T assay plate reading, mean” value (measurement M4) was 0.3664 and the “Th-T assay plate reading, mean” value (measurement M5) was 0.4514. The “Th-T assay plate reading, mean” value (measurement M6) was 0.4846, the “Th-T assay plate reading, mean” value (measurement M7) was 0.512 and the “Th-T assay plate reading, mean” value (measurement M8) was 0.5981. The “Th-T assay plate reading, mean” value (measurement M9) was 0.6456, the “Th-T assay plate reading, mean” value (measurement M10) was 0.6881 and the “Th-T assay plate reading, mean” value (measurement M11) was 0.7275. The “Th-T assay plate reading, mean” value (measurement M12) was 0.7567, the “Th-T assay plate reading, mean” value (measurement M13) was 0.7872 and the “Th-T assay plate reading, mean” value (measurement M14) was 0.8218. For the same compound, the “Th-T assay plate reading, mean” value (measurement M15) was 0.8797, the “Th-T assay plate reading, mean” value (measurement M16) was 0.9731 and the “Th-T fluorescence, mean of three wells” value (reading M17, Supplementary Fig. 47 source data) was 1.192. For the same compound, the “Th-T fluorescence, mean of three wells” value (reading M18, Supplementary Fig. 47 source data) was 1.512, the “Th-T fluorescence, mean of three wells” value (reading M19, Supplementary Fig. 47 source data) was 1.858 and the “Th-T fluorescence, mean of three wells” value (reading M20, Supplementary Fig. 47 source data) was 2.193. The “Th-T fluorescence, mean of three wells” value (reading M21, Supplementary Fig. 47 source data) was 2.479, the “Th-T fluorescence, mean of three wells” value (reading M22, Supplementary Fig. 47 source data) was 2.615 and the “Th-T fluorescence, mean of three wells” value (reading M23, Supplementary Fig. 47 source data) was 2.7089. The “Th-T fluorescence, mean of three wells” value (reading M24, Supplementary Fig. 47 source data) was 2.736, the “Th-T fluorescence, mean of three wells” value (reading M25, Supplementary Fig. 47 source data) was 2.775 and the “Th-T fluorescence, mean of three wells” value (reading M26, Supplementary Fig. 47 source data) was 2.797. The “Th-T fluorescence, mean of three wells” value (reading M27, Supplementary Fig. 47 source data) was 2.826, the “Th-T fluorescence, mean of three wells” value (reading M28, Supplementary Fig. 47 source data) was 2.834 and the “Th-T fluorescence, mean of three wells” value (reading M29, Supplementary Fig. 47 source data) was 2.861. The “Th-T fluorescence, mean of three wells” value (reading M30, Supplementary Fig. 47 source data) was 2.901, the “Th-T fluorescence, mean of three wells” value (reading M31, Supplementary Fig. 47 source data) was 2.9009 and the “Th-T fluorescence, mean of three wells” value (reading M32, Supplementary Fig. 47 source data) was 2.941. The “Th-T fluorescence, mean of three wells” value (reading M33, Supplementary Fig. 47 source data) was 2.954, the “Th-T fluorescence, mean of three wells” value (reading M34, Supplementary Fig. 47 source data) was 2.9825 and the “Th-T fluorescence, mean of three wells” value (reading M35, Supplementary Fig. 47 source data) was 2.976. The “Th-T fluorescence, mean of three wells” value (reading M36, Supplementary Fig. 47 source data) was 3.001, the “Th-T fluorescence, mean of three wells” value (time course, reading M57) was 3.126 and the “Th-T fluorescence, mean of three wells” value (time course, reading M58) was 3.154. The “Th-T fluorescence, mean of three wells” value (time course, reading M59) was 3.098, the “Th-T fluorescence, mean of three wells” value (time course, reading M60) was 3.135 and the “Th-T fluorescence, mean of three wells” value (time course, reading M61) was 3.131. For the same compound, the “Th-T fluorescence, mean of three wells” value (time course, reading M62) was 3.132, the “Th-T fluorescence, mean of three wells” value (time course, reading M63) was 3.122 and the “Th-T fluorescence, mean of three wells” value (time course, reading M64) was 3.115. The “Th-T fluorescence, mean of three wells” value (time course, reading M65) was 3.114, the “Th-T fluorescence, mean of three wells” value (time course, reading M66) was 3.129 and the “Th-T fluorescence, mean of three wells” value (time course, reading M67) was 3.159. The “Th-T fluorescence, mean of three wells” value (time-course reading M97, Supplementary Fig. 47 source data) was 3.103, the “Th-T fluorescence, mean of three wells” value (time-course reading M98, Supplementary Fig. 47 source data) was 3.123 and the “Th-T fluorescence, mean of three wells” value (time-course reading M99, Supplementary Fig. 47 source data) was 3.102. The “Th-T fluorescence, mean of three wells” value (time-course reading M100, Supplementary Fig. 47 source data) was 3.074, the “Th-T fluorescence, mean of three wells” value (time-course reading M101, Supplementary Fig. 47 source data) was 3.118 and the “Th-T fluorescence, mean of three wells” value (time-course reading M102, Supplementary Fig. 47 source data) was 3.1. The “Th-T fluorescence, mean of three wells” value (time-course reading M103, Supplementary Fig. 47 source data) was 3.088, the “Th-T fluorescence, mean of three wells” value (time-course reading M104, Supplementary Fig. 47 source data) was 3.101 and the “Th-T fluorescence, mean of three wells” value (time-course reading M105, Supplementary Fig. 47 source data) was 3.114. The “Th-T fluorescence, mean of three wells” value (time-course reading M106, Supplementary Fig. 47 source data) was 3.076, the “Th-T fluorescence, mean of three wells” value (time-course reading M107, Supplementary Fig. 47 source data) was 3.094 and the “Th-T fluorescence, mean of three wells” value (time-course reading M108, Supplementary Fig. 47 source data) was 3.063. For the same compound, the “Th-T fluorescence, mean of three wells” value (time-course reading M109, Supplementary Fig. 47 source data) was 3.057, the “Th-T fluorescence, mean of three wells” value (time-course reading M110, Supplementary Fig. 47 source data) was 3.049 and the “Th-T fluorescence, mean of three wells” value (time-course reading M111, Supplementary Fig. 47 source data) was 3.101. For the same compound, the “Th-T fluorescence, mean of three wells” value (time-course reading M112, Supplementary Fig. 47 source data) was 3.097, the “Th-T fluorescence, mean of three wells” value (time-course reading M113, Supplementary Fig. 47 source data) was 3.03 and the “Th-T fluorescence, mean of three wells” value (time-course reading M114, Supplementary Fig. 47 source data) was 3.07. For the same compound, the “Th-T fluorescence, mean of three wells” value (time-course reading M115, Supplementary Fig. 47 source data) was 3.098 and the “Th-T fluorescence, mean of three wells” value (time-course reading M116, Supplementary Fig. 47 source data) was 3.06.
